Measurements taken from ChEMBL document CHEMBL6083193, “Advancing drug discovery: Thiadiazole derivatives as multifaceted agents in medicinal chemistry and pharmacology” (Bioorg Med Chem, 2024).

Assays:
Alpha glucosidase = Alpha glucosidase (Homo sapiens, UniProt O43451+P10253+P14410+Q2M2H8); experiment: Inhibition of Alpha-glucosidase (unknown origin); format: protein assay
[1] = Inhibition of Alpha-amylase (unknown origin); set-up: species or system Homo sapiens
Mus musculus = experiment: Antiinflammatory activity against carrageenan-induced paw edema in Swiss mouse assessed as reduction in paw edema at 15 mg/kg, po relative to control; format: functional; set-up: scale not given: the % may be the effect or the level left

SMILES	IC50 (Alpha glucosidase) [nM]	IC50 [1] [nM]	Activity (Mus musculus) [%]
O=[N+]([O-])c1ccc(NC(=S)Nc2nsc(Nc3cccc([N+](=O)[O-])c3)n2)cc1	2200	1300	
S=C(Nc1ccc(Cl)c(Cl)c1)Nc1nsc(Nc2ccc(Cl)c(Cl)c2)n1	2200	1300	
Cc1ccc(NC(=S)Nc2nsc(Nc3ccc(Cl)cc3)n2)cc1	2200	1300	
O=[N+]([O-])c1ccc(NC(=S)Nc2nsc(Nc3ccc(Cl)cc3)n2)cc1	2200	1300	
O=C1N/C(=N\c2nnc(C34CC5CC(CC(C5)C3)C4)s2)S/C1=C\c1cccc([N+](=O)[O-])c1			66.7
O=C1N/C(=N\c2nnc(C34CC5CC(CC(C5)C3)C4)s2)S/C1=C\c1cccc(Cl)c1Cl			66.7
O=[N+]([O-])c1cccc(NC(=S)Nc2nsc(Nc3ccc(F)cc3)n2)c1	2200	1300	
O=C1N/C(=N\c2nnc(C34CC5CC(CC(C5)C3)C4)s2)S/C1=C\c1ccccc1			66.7
CN(C)c1ccc(/C=C2\S/C(=N/c3nnc(C45CC6CC(CC(C6)C4)C5)s3)NC2=O)cc1			66.7
FC(F)(F)c1cccc(Nc2nc(NC(=S)Nc3ccc(Cl)cc3)ns2)c1	2200	1300	
COc1ccc(/C=C2\S/C(=N/c3nnc(C45CC6CC(CC(C6)C4)C5)s3)NC2=O)cc1			66.7
S=C(Nc1ccc(Br)cc1)Nc1nsc(Nc2ccc(Cl)cc2)n1	2200	1300	
O=C1N/C(=N\c2nnc(C34CC5CC(CC(C5)C3)C4)s2)S/C1=C\c1ccc(F)cc1			66.7
O=C1N/C(=N\c2nnc(C34CC5CC(CC(C5)C3)C4)s2)S/C1=C\c1cccc(F)c1F			66.7
O=C1N/C(=N\c2nnc(C34CC5CC(CC(C5)C3)C4)s2)S/C1=C\c1ccc(Cl)cc1Cl			66.7
Cc1ccc(/C=C2\S/C(=N/c3nnc(C45CC6CC(CC(C6)C4)C5)s3)NC2=O)cc1			66.7
O=C1N/C(=N\c2nnc(C34CC5CC(CC(C5)C3)C4)s2)S/C1=C\c1ccc(O)cc1			66.7
O=C1N/C(=N\c2nnc(C34CC5CC(CC(C5)C3)C4)s2)S/C1=C\c1c(F)cccc1F			66.7
O=C1N/C(=N\c2nnc(C34CC5CC(CC(C5)C3)C4)s2)S/C1=C\c1ccc([N+](=O)[O-])cc1			66.7
O=C1N/C(=N\c2nnc(C34CC5CC(CC(C5)C3)C4)s2)S/C1=C\c1ccccc1[N+](=O)[O-]			66.7
O=[N+]([O-])c1cccc(Nc2nc(NC(=S)Nc3ccc(Cl)cc3Cl)ns2)c1	2200	1300	
O=C1N/C(=N\c2nnc(C34CC5CC(CC(C5)C3)C4)s2)S/C1=C\c1ccc(Br)cc1			66.7
O=C1N/C(=N\c2nnc(C34CC5CC(CC(C5)C3)C4)s2)S/C1=C\c1c(Cl)cccc1Cl			66.7

More lines, main results first:

IC50 (Alpha glucosidase) [nM]	IC50 [1] [nM]	SMILES	Activity (Mus musculus) [%]
< 500000	2590	Cc1cccc(CN2C(=O)/C(=N\Nc3nncs3)c3ccccc32)c1	
2200	1300	O=[N+]([O-])c1ccccc1NC(=S)Nc1nsc(Nc2ccc(Cl)c(Cl)c2)n1	
2200	1300	Fc1ccccc1NC(=S)Nc1nsc(Nc2ccc(Cl)c(Cl)c2)n1	
< 500000	3870	CCc1ccc(C2SCC(=O)N2c2nnc(-c3ccccc3)s2)cc1 (stereo not given)	
2200	1300	O=[N+]([O-])c1cccc(NC(=S)Nc2nsc(Nc3cccc([N+](=O)[O-])c3)n2)c1	
2200	1300	COc1ccccc1NC(=S)Nc1nsc(Nc2ccc(Cl)c(Cl)c2)n1	
2200	1300	O=[N+]([O-])c1ccccc1NC(=S)Nc1nsc(Nc2cccc(C(F)(F)F)c2)n1	
2200	1300	COc1cccc(NC(=S)Nc2nsc(Nc3ccc(Cl)c(Cl)c3)n2)c1	
< 500000		CSc1ccc(C2SCC(=O)N2c2nnc(-c3ccccc3)s2)cc1 (stereo not given)	
2200	1300	FC(F)(F)c1cccc(Nc2nc(NC(=S)Nc3ccccc3)ns2)c1	
